From US10111847B2, “Compounds and methods for modulating vascular injury” (The Regents of the University of California, priority 2012, dated 2018)

What was measured:
[1] = test system: human saphenous vein endothelial (EC) cells; experiment: TNFα induced cellular ROS production (CellRox) in EC (Maresin-1); type: cell-based; conditions: TNFα 1 ng/ml
Description: Mar-1. Cells were grown in 8-well chamber slides at a density of 15000 cells/well for 2 days for VSMCs and 50000 cells/well for 2 days for ECs in a 96 well plate. After treatments, cells were incubated with dihydroethidium (DHE, 3 μM, Invitrogen) or CellRox (Invitrogen Inc, 5 μM for ECs) in media for 30 minutes at 37° C. in a humidified chamber with 5% CO2 protected from light. DAPI nuclear counter staining was utilized for DHE staining. For DHE, fluorescence was detected with TRITC filter allowing the detection of the DHE emission wavelength of 590-620 nm. Fluorescence quantitation was performed using ImageJ analysis software. For ECs, fluorescence measurements were taken using a Spectramax M2e plate reader.
FIGS. 13A-13D. Representative merged images of DHE staining, counterstained with DAPI. (A), Negative control. (B), TNFα at 10 ng/ml for 4 hr. […] (E) Quantitative comparison of DHE staining intensity in the nucleus of human saphenous vein vascular smooth muscle (sv-VSMC) cells, treated with TNFα and 7S and 7R-Maresin-1 with and without pertussis toxin. (F) Quantitative comparison of cellular ROS production by CellRox (Life technologies, Carlsbad, Calif.) in human saphenous vein endothelial (EC) cells treated with TNFα (1 ng/nil) and 7S-Maresin-1 (N>=3). […]

[2] = test system: inflammatory mediators; experiment: Inflammation cytokine array of conditioned medium from sv-ECs; type: cell-based, human; conditions: 100 nm, 30 min; TNF α 1 ng/ml 18 hrs
Description: Media was collected and incubated for 2 hr with the inflammation array membranes. The cells were harvested for protein estimation for normalization purposes. The membranes were washed following instruction protocol supplied by the manufacturer (Raybiotech Inc., Norcross, Ga.) and probed with biotinylated anti-cytokine antibody cocktail (provided by the manufacturer) for 2 hrs. The membranes were again washed with appropriate buffers provided by the manufacturer and incubated for 2 hrs with HRP-conjugated streptavidin, followed by chemiluminescence based detection of signal by Chemidoc (Biorad Inc.)
Inflammatory signals are amplified by autocrine and paracrine pathways that include the elaboration of pro-inflammatory mediators into the local extracellular milieu. Cells grown in 6 cm dish were serum starved for 24 hrs. The cells were then pre-treated with 100 nm 7S-Maresin-1 for 30 min followed by 18 hrs of TNF α (1 ng/ml). Cell culture media was collected and incubated with human inflammation cytokine array membranes (AAH-INF-3-4, Raybiotech Inc.), coated with antibodies (in duplicate) recognizing 40 different inflammatory mediators.
FIGS. 19A-19C. (A, B) Representative membrane images from a set of three pairs. (C) Densitometric quantitation of each of the attenuated inflammatory mediators in three independent experiments was performed and is represented in the bar graph. […]

[3] = test system: VSMC; experiment: TNF-α-induced superoxide production (DHE) in VSMC (RvD1); type: cell-based, human; conditions: 10 and 100 nM; TNF-α 10 ng/ml 4 hours
Description: RvD1. Cells are seeded and grown on chamber slides at a density of 10,000 cells per chamber for 2 days, followed by treatment with 10 ng/ml TNF-α with or without RvD1 (10 and 100 nM) in serum-free media for 4 hours. After incubation cells are incubated with DHE (5 μmol/L, Invitrogen) in PBS for 30 minutes at 37° C. in a humidified chamber protected from light. DAPI nuclear counter staining is utilized. For frozen section 30-μm-thick sections are incubated with DHE (10 μmol/L) in PBS for 30 minutes at the same condition described above. Fluorescence was detected with TRITC filter allowing the detection of the DHE emission wavelength of 590-620 nm. The fluorescence lamp gain is standardized for all images and analyses. Fluorescence quantitation is performed using ImageJ analysis software (National Institute of Health, Bethesda, Md.). For VSMC the fluorescence intensity is determined for the DHE-stained control cells (no treatment control) from each experimental group and then individual treated cells from the same group are normalized to the corresponding value. For frozen sections the fluorescence intensity is determined for the DHE-stained control vessels (uninjured abdominal aorta) from each experimental group and then individual treated vessels from the same group are normalized to the corresponding value. […]

Compound	TNF-α-induced superoxide production in EC [1]	levels of multiple inflammatory mediators in conditioned medium from EC [2]	TNF-α-induced superoxide production in VSMC [3]
CC/C=C\C/C=C\C[C@H](O)\C=C/C=C/C=C/[C@@H](O)C/C=C\CCC(=O)O [7S-Maresin-1, 7S,14R-dihydroxydocosa-4Z,8E,10Z,12Z,16Z,19Z-hexaenoic acid]	significantly reduced	reduced	–
CC/C=C\C[C@H](O)/C=C/C=C\C=C\C=C\[C@@H](O)[C@@H](O)C/C=C\CCC(=O)O [RvD1, Resolvin D1]	–	–	significantly reduced
